Results reported in paper PMC2952853 (Nucleic Acids Research, 2010).

Experiments:
RutR (RutR-His6; YcdC) [1] = target: T1, RutR (RutR-His6; YcdC) (Escherichia coli, UniProt P0ACU2); assay: EMSA, inhibition of RutR binding to […]-labelled carP1
T1 sequence (P0ACU2 1-212): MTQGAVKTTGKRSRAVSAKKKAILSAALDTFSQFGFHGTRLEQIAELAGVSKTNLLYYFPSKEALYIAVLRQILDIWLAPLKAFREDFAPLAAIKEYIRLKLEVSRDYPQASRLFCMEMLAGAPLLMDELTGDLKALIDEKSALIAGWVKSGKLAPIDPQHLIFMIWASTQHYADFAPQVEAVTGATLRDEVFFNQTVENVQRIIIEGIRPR

RutR (RutR-His6; YcdC) [2] = target: T1, RutR (RutR-His6; YcdC); assay type: binding; details: read-out: % inhibition at 100 μM

| IC50 (RutR (RutR-His6; YcdC) [1]) [nM] | inhibition at 100 µM (RutR (RutR-His6; YcdC) [2]) [%] | Structure (SMILES) |
| --- | --- | --- |
| ~100 |  | O=c1cc[nH]c(=O)[nH]1 [uracil] |
|  | ~50 | Cc1c[nH]c(=O)[nH]c1=O [thymine] |
